pKi: −log10 of the molar value.

The target in one test is T1, HIV protease (Human immunodeficiency virus type 1 group M subtype B, UniProt P04585).
T1 construct: A third viral enzyme known as protease then cleaves the polyproteins
Put plainly: Enzymatic Assay for Determining the Inhibition Constant (Ki) of Synthetic Compounds Targeting the HIV Protease (fluorometric FRET assay). The class given is biochemical.
Conditions: not given
An excerpt:
Enzymatic Assay for Determining the Inhibition Constant (Ki) of Synthetic Compounds Targeting the HIV Protease
This is a fluorometric assay based on the cleavage by protease of a substrate carrying a donor group (EDANS) and an acceptor group (DABCYL) on each side of the cleavage site, interacting together through fluorescence resonance energy transfer (FRET) as described by Matayoshi et al. (Science 247:[…], 1990).
After calculation of Vo and Vi, the inhibition constant (Ki) of the compound is determined using the equation of Henderson: [formula]
where Vo=the enzyme's initial velocity
Vi=the enzyme velocity in the presence of the inhibitory compound,
[I]=inhlibitor concentration, [S]=substrate concentration,
Km=Michaelis-Menten constant and Kiapp=apparent Ki
Graphs are traced and the Ki determined using GraphPad Prism software v. 3.0.
Broadly, the pKi is the negative decadic logarithm of the Ki, by convention in mol/L. `CC(C)CN([C@@H](CCCCNC(=O)[C@H](Cc1ccccc1)NS(=O)(=O)c1cccs1)C(=O)O)S(=O)(=O)c1ccc([N+](=O)[O-])cc1` [Example 29, Nα-Isobutyl-Nα-(4-nitrobenzenesulfonyl)-Nε-[N′α-(2-thiophenesulfonyl)-L-phenylalanyl]-L-lysine] gave a pKi of 7.96.

Regarding `COc1ccc(S(=O)(=O)N[C@@H](Cc2ccccc2)C(=O)NCCCC[C@@H](CO)N(CC(C)C)S(=O)(=O)c2ccc(C)cc2)cc1` [Example 126, (2S,2′S) 2-N-Isobutyl-2-N-(4-methylbenzenesulfonyl)-6-N-[N′α-(4-methoxybenzenesulfonyl)-S-phenylalanyl]-2,6-diaminohexanol], the negative logarithm of the Ki (pKi) is 7.72. For `Cc1ccc(S(=O)(=O)N[C@@H](Cc2c[nH]c3ccccc23)C(=O)NCCCC[C@@H](CO)N(CC(C)C)S(=O)(=O)c2ccc(N)cc2)cc1` [Example 145, (2S,2′S) 2-N-(4-Aminobenzenesulfonyl)-2-N-isobutyl-6-N-[N′α-(4-methylbenzenesulfonyl)-S-tryptophanyl]-2,6-diaminohexanol], the negative logarithm of the Ki (pKi) was 8.72.

The molecule `CC(=O)N[C@@H](Cc1c[nH]c2ccccc12)C(=O)NCCCC[C@@H](C(=O)O)N(CC(C)C)S(=O)(=O)c1ccc(C)cc1` [Example 99, Nα-Isobutyl-Nα-(4-methylbenzenesulfonyl)-Nε-(N′α-acetyl-L-tryptophanyl)-L-lysine] gave a pKi of 9.36. The same measure, in the same setting: the same measure for `Cc1ccc(S(=O)(=O)N(CC(C)C)[C@@H](CCCCNC(=O)[C@H](CC(N)=O)NS(=O)(=O)c2ccccc2)C(=O)O)cc1` [Example 25]: 8.28.

As to `Cc1ccc(S(=O)(=O)N(CC(C)C)[C@H](CO)CCCCNC(=O)[C@H](Cc2c[nH]c3ccccc23)NC(=O)N2CCOCC2)cc1` [Example 171, (2S,2′S) 2-N-Isobutyl-2-N-(4-methylbenzenesulfonyl)-6-N-[N′α-(4-morpholinecarbonyl)-S-tryptophanyl]-2,6-diaminohexanol], the pKi was 8.10. On to `Cc1ccc(S(=O)(=O)N[C@@H](Cc2ccccc2)C(=O)NCCC[C@@H](C(=O)O)N(CC(C)C)S(=O)(=O)c2ccc(C)cc2)cc1` [Example 154, Nα-Isobutyl-Nα-(4-methylbenzenesulfonyl)-Nε-[N′α-(4-methylbenzenesulfonyl)-L-phenylalanyl]-L-ornithine], for which the pKi is less than 6.52. Same read-out and setting: the same measure for `Cc1ccc(S(=O)(=O)N(CC(C)C)[C@H](CO)CCCCNC(=O)[C@H](Cc2c(F)c(F)c(F)c(F)c2F)NC(=O)OC(C)(C)C)cc1` [Example 143, (2S,2′S) 2-N-Isobutyl-2-N-(4-methylbenzenesulfonyl)-6-N-(N′α-tert-butoxycarbonyl-S-pentafluorophenylalanyl)-2,6-diaminohexanol]: less than 6.52. On the same count and under the same terms, as for `Cc1ccc(S(=O)(=O)N[C@@H](Cc2cccs2)C(=O)NCCCC[C@@H](C(=O)O)N(CC(C)C)S(=O)(=O)c2ccc(C)cc2)cc1` [Example 35, Nα-Isobutyl-Nα-(4-methylbenzenesulfonyl)-Nε-[N′α-(4-methylbenzenesulfonyl)-L-2-thiophenylalanyl]-L-lysine], the figure is 7.68. Still for that read-out and setting: as for `COC(=O)[C@H](CCCCNC(=S)[C@H](Cc1c[nH]c2ccccc12)NS(=O)(=O)c1ccc(C)cc1)N(CC(C)C)S(=O)(=O)c1ccc(C)cc1` [Example 75, Nα-Isobutyl-Nα-(4-methylbenzenesulfonyl)-Nε-[N′α-(4-methylbenzenesulfonyl)-L-thiotryptophanyl]-L-lysine Methyl Ester], the figure is less than 6.52. In turn, `Cc1ccc(S(=O)(=O)N(CC(C)C)[C@@H](CCCCNC(=O)[C@H](Cc2ccccc2)NS(=O)(=O)c2ccc(C(F)(F)F)cc2)C(=O)O)cc1` [Example 23, Nα-Isobutyl-Nα-(4-methylbenzenesulfonyl)-Nε-[N′α-(4-trifluoromethylbenzenesulfonyl)-L-phenylalanyl]-L-lysine] showed a pKi of 7.92. On the same count and under the same terms, as for `COc1ccc(CN(CC(=O)NCCCC[C@@H](C(=O)O)N(CC(C)C)S(=O)(=O)c2ccc(C)cc2)c2ccccc2)cc1` [Example 174, Nα-Isobutyl-Nα-(4-methylbenzenesulfonyl)-Nε-[N′α-(4-methoxybenzyl)-N′α-phenylglycyl]-L-lysine], the figure is 8.85; as for `Cc1ccc(S(=O)(=O)N(CC(C)C)[C@@H](CCCCNC(=O)[C@H](CC(N)=O)NC(=O)C(C)(C)C)C(=O)O)cc1` [Example 62, Nα-Isobutyl-Nα-(4-methylbenzenesulfonyl)-Nε-(N′α-pivaloyl-L-asparagyl)-L-lysine], 6.67. Still for that read-out and setting: the same measure for `Cc1ccc(S(=O)(=O)N[C@@H](CCC(N)=O)C(=O)NCCCC[C@@H](C(=O)O)N(CC(C)C)S(=O)(=O)c2ccc(C)cc2)cc1` [Example 34, Nα-Isobutyl-Nα-(4-methylbenzenesulfonyl)-Nε-[N′α-(4-methylbenzenesulfonyl)-L-glutaminyl]-L-lysine]: 7.02.

With `COc1ccc(CN(CC(=O)NCCCC[C@@H](CO)N(CC(C)C)S(=O)(=O)c2ccc(C)cc2)c2ccccc2)cc1` [Example 175, (2S) 2-N-Isobutyl-2-N-(4-methylbenzenesulfonyl)-6-N-[N′α-(4-methoxybenzyl)-N′α-phenylglycyl]-2,6-diaminohexanol], the pKi is 8.20. Same read-out and setting: the same measure for `Cc1ccc(S(=O)(=O)N(CC(C)C)[C@H](CO)CCCCNC(=O)[C@H](Cc2cccc(F)c2)NC(=O)OC(C)(C)C)cc1` [Example 139, (2S,2′S) 2-N-Isobutyl-2-N-(4-methylbenzenesulfonyl)-6-N-(N′α-tert-butoxycarbonyl-S-3-fluorophenylalanyl)-2,6-diaminohexanol]: 8.39; for `Cc1ccc(S(=O)(=O)N(CC(C)C)[C@H](CO)CCCCNC(=O)[C@H](Cc2c[nH]c3ccccc23)NC(=O)OCC(C)C)cc1` [Example 192, (2S,2′S) 2-N-Isobutyl-2-N-(4-methylbenzenesulfonyl)-6-N-(N′α-isobutoxycarbonyl-S-tryptophanyl)-2,6-diaminohexanol]: 8.35; for `COc1ccc(S(=O)(=O)N(CC2CCCC2)[C@H](CO)CCCCNC(=O)[C@H](Cc2c[nH]c3ccccc23)NC(C)=O)cc1` [Example 173, (2S,2′S) 2-N-Cyclopentylmethyl-2-N-(4-methoxybenzenesulfonyl)-6-N-(N′α-acetyl-S-tryptophanyl)-2,6-diaminohexanol]: 7.96. On the same count and under the same terms, the same measure for `Cc1ccc(S(=O)(=O)N(CC(C)C)[C@@H](CCCCNC(=O)[C@H](Cc2c[nH]c3ccccc23)NC(=O)C(C)(C)C)C(=O)O)cc1` [Example 100, Nα-Isobutyl-Nα-(4-methylbenzenesulfonyl)-Nε-(N′α-pivaloyl-L-tryptophanyl)-L-lysine]: 9.41; for `COC(=O)[C@H](CCCCNC(=O)[C@H](Cc1ccccc1)NS(=O)(=O)c1ccc(C)cc1)N(CC(C)C)S(=O)(=O)c1ccc(C)cc1` [Example 68, Nα-Isobutyl-Nα-(4-methylbenzenesulfonyl)-Nε-[N′α-(4-methylbenzenesulfonyl)-L-phenylalanyl]-L-lysine Methyl Ester]: less than 6.52. `Cc1ccc(S(=O)(=O)N(CC(C)C)[C@@H](CCCCNC(=O)[C@H](CC(C)C)NS(=O)(=O)c2ccccc2)C(=O)O)cc1` [Example 22, Nα-Isobutyl-Nα-(4-methylbenzenesulfonyl)-Nε-(N′α-benzenesulfonyl-L-leucyl]-L-lysine] showed a pKi of 7.54. `Cc1ccc(S(=O)(=O)N(CC(C)C)[C@@H](CCCCNC(=O)CNCCN2CCOCC2)C(=O)O)cc1` [Example 111, Nα-Isobutyl-Nα-(4-methylbenzenesulfonyl)-Nε-[N′α-(4-niorpholinyl-N-ethyl)glycyl]-L-lysine]: the pKi was less than 6.52.

Consider `Cc1ccc(S(=O)(=O)N(CC(C)C)[C@H](CO)CCCCNC(=O)[C@H](Cc2cccnc2)NC(=O)OC(C)(C)C)cc1` [Example 135, (2S,2′S) 2-N-Isobutyl-2-N-(4-methylbenzenesulfonyl)-6-N-(N′α-tert-butoxycarbonyl-S-3-pyridylalanyl)-2,6-diaminohexanol], for which the pKi was 6.84. For `Cc1ccc(S(=O)(=O)NCC(=O)NCCCC[C@@H](C(=O)O)N(CC(C)C)S(=O)(=O)c2ccc(C)cc2)cc1` [Example 21, Nα-Isobutyl-Nα-(4-methylbenzenesulfonyl)-Nε-[N′α-(4-methylbenzenesulfonyl)-glycyl]-L-lysine], the pKi was 7.68. For the molecule `Cc1ccc(S(=O)(=O)N(CC(=O)NCCCC[C@@H](CO)N(CC(C)C)S(=O)(=O)c2ccc(C)cc2)Cc2ccccc2)cc1` [Example 159, (2S) 2-N-Isobutyl-2-N-(4-methylbenzenesulfonyl)-6-N-[N′α-benzyl-N′α-(4-methylbenzenesulfonyl)glycyl]-2,6-diaminohexanol], the pKi is 7.00.

As for `Cc1ccc(S(=O)(=O)N(CC(C)C)[C@@H](CCCCNC(=O)CNc2cnc3ccccc3c2)C(=O)O)cc1` [Example 113, Nα-Isobutyl-Nα-(4-methylbenzenesulfonyl)-Nε-[N′α-(3-quinolyl)glycyl]-L-lysine], the pKi is 7.92. `Cc1ccc(S(=O)(=O)N[C@H](C(=O)NCCCC[C@@H](C(=O)O)N(CC(C)C)S(=O)(=O)c2ccc(C)cc2)c2ccccc2)cc1` [Example 27, Nα-Isobutyl-Nα-(4-methylbenzenesulfonyl)-Nε-[N′α-(4-methylbenzenesulfonyl)-L-phenylglycyl]-L-lysine]: the negative logarithm of the Ki (pKi) is 7.96.

Still in this test, the particulars now being: Table 1, compounds of formula I; read-out: Ki (anti-protease activity).
On to `Cc1ccc(S(=O)(=O)N(CC(C)C)[C@@H](CCCCNC(=O)CNc2ccncc2)C(=O)O)cc1` [Example 112, Nα-Isobutyl-Nα-(4-methylbenzenesulfonyl)-Nε-[N′α-(4-pyridyl)glycyl]-L-lysine], for which the pKi was less than 6.52.

(Values after patent US6610689B2, “HIV protease inhibitors based on amino acid derivatives” (priority 2001, dated 2003).)
